# Laboratory results taken from ChEMBL document CHEMBL1201862, “PubChem BioAssay data set” (2004).
#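 Briefly, cells in 96-well plates were exposed to five compound concentrations for 48 h, and endpoints were estimated by linear interpolation. Abbreviation: GI50, concentration required for 50% inhibition of growth.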 Activity calls are given as the source filed them. Rule as the data show it: active = GI50 up to about 1.1 µM and inactive = higher.
# How the values were obtained:
# Assay in all cases: NCI anticancer screen, dose series, 48 h
# ACHN = tested on: ACHN
# HCC 2998 = tested on: HCC 2998
# HCT-116 = tested on: HCT-116
# HOP-92 = tested on: HOP-92
# KM12 = tested on: KM12
# MDA-MB-435 = tested on: MDA-MB-435
# NCI-H23 = tested on: NCI-H23
# OVCAR-4 = tested on: OVCAR-4
# OVCAR-8 = tested on: OVCAR-8
# PC-3 = tested on: PC-3
# RXF 393 = tested on: RXF 393
# SF-295 = tested on: SF-295
# SK-MEL-2 = tested on: SK-MEL-2
# SK-OV-3 = tested on: SK-OV-3
# SW-620 = tested on: SW-620
# U-251 = tested on: U-251
# UACC-257 = tested on: UACC-257
# UACC-62 = tested on: UACC-62
# HT-29 = tested on: HT-29
# Malme-3M = tested on: Malme-3M
Compound,GI50 (ACHN),GI50 (HCC 2998),GI50 (HCT-116),GI50 (HOP-92),GI50 (KM12),GI50 (MDA-MB-435),GI50 (NCI-H23),GI50 (OVCAR-4),GI50 (OVCAR-8),GI50 (PC-3),GI50 (RXF 393),GI50 (SF-295),GI50 (SK-MEL-2),GI50 (SK-OV-3),GI50 (SW-620),GI50 (U-251),GI50 (UACC-257),GI50 (UACC-62),GI50 (HT-29),GI50 (Malme-3M)
Cn1c(S)nc2c(Cl)cc(Cl)cc2c1=O,> 100 µM (inactive),> 100 µM (inactive),> 100 µM (inactive),63.5 µM (inactive),> 100 µM (inactive),> 100 µM (inactive),> 100 µM (inactive),> 100 µM (inactive),> 100 µM (inactive),> 100 µM (inactive),> 100 µM (inactive),> 100 µM (inactive),> 100 µM (inactive),74 µM (inactive),> 100 µM (inactive),> 100 µM (inactive),> 100 µM (inactive),> 100 µM (inactive),,
CC(C)(Br)C(Br)CCC1(C2CO2)CO1 (stereo not drawn),> 5 µM (inactive),> 5 µM (inactive),> 5 µM (inactive),> 5 µM (inactive),,> 5 µM (inactive),> 5 µM (inactive),> 5 µM (inactive),> 5 µM (inactive),> 5 µM (inactive),> 5 µM (inactive),> 5 µM (inactive),,> 5 µM (inactive),> 5 µM (inactive),> 5 µM (inactive),> 5 µM (inactive),,> 5 µM (inactive),> 5 µM (inactive)
CC(Br)C(=O)NC(CO)C(=O)O (stereo not drawn),> 100 µM (inactive),,> 100 µM (inactive),> 100 µM (inactive),> 100 µM (inactive),> 100 µM (inactive),> 100 µM (inactive),> 100 µM (inactive),> 100 µM (inactive),> 100 µM (inactive),> 100 µM (inactive),> 100 µM (inactive),> 100 µM (inactive),> 100 µM (inactive),> 100 µM (inactive),> 100 µM (inactive),> 100 µM (inactive),> 100 µM (inactive),> 100 µM (inactive),> 100 µM (inactive)
C=C1CC(C#N)(C#N)[C@@H]2CC3CCCC3[C@H]12.C=C1CC(C#N)(C#N)[C@H]2C3CCCC3C[C@@H]12 (stereo partly drawn),24.8 µM (inactive),,4.99 µM (inactive),11.3 µM (inactive),20.1 µM (inactive),19.3 µM (inactive),10 µM (inactive),,17.8 µM (inactive),30.1 µM (inactive),22.1 µM (inactive),18.3 µM (inactive),,25.4 µM (inactive),15 µM (inactive),20 µM (inactive),,25.9 µM (inactive),14 µM (inactive),
CCOC(=O)/C(C(N)=O)=C(O)/C(O)=C/C(=O)c1ccc(Cl)cc1,20 µM (inactive),,14.1 µM (inactive),21.8 µM (inactive),17.3 µM (inactive),23.1 µM (inactive),18.3 µM (inactive),34.4 µM (inactive),17.7 µM (inactive),19.1 µM (inactive),15.9 µM (inactive),29.2 µM (inactive),18.5 µM (inactive),20.6 µM (inactive),20.5 µM (inactive),15.6 µM (inactive),16 µM (inactive),20.6 µM (inactive),21.8 µM (inactive),17.9 µM (inactive)
COc1ccc2nc(-c3ccc(O)cc3)cn2c1,23.3 µM (inactive),,48.5 µM (inactive),95.7 µM (inactive),50.2 µM (inactive),18.5 µM (inactive),71.9 µM (inactive),73.8 µM (inactive),51.3 µM (inactive),43.9 µM (inactive),> 100 µM (inactive),> 100 µM (inactive),> 100 µM (inactive),> 100 µM (inactive),11.7 µM (inactive),44.7 µM (inactive),,24.7 µM (inactive),46.6 µM (inactive),> 100 µM (inactive)
CCn1c(-c2ccc(C)cc2)cs/c1=N\C(P(=O)(O)O)P(=O)(O)O,> 100 µM (inactive),> 100 µM (inactive),> 100 µM (inactive),> 100 µM (inactive),> 100 µM (inactive),> 100 µM (inactive),> 100 µM (inactive),,> 100 µM (inactive),> 100 µM (inactive),> 100 µM (inactive),> 100 µM (inactive),,> 100 µM (inactive),> 100 µM (inactive),> 100 µM (inactive),> 100 µM (inactive),> 100 µM (inactive),> 100 µM (inactive),> 100 µM (inactive)
Nc1ccc(C(=O)Nn2c(-c3ccccc3)nc3ccccc3c2=O)cc1,> 100 µM (inactive),> 100 µM (inactive),> 100 µM (inactive),> 100 µM (inactive),> 100 µM (inactive),> 100 µM (inactive),> 100 µM (inactive),> 100 µM (inactive),> 100 µM (inactive),> 100 µM (inactive),> 100 µM (inactive),> 100 µM (inactive),,> 100 µM (inactive),> 100 µM (inactive),> 100 µM (inactive),> 100 µM (inactive),> 100 µM (inactive),> 100 µM (inactive),> 100 µM (inactive)
N=C(c1ccc2ccccc2c1)c1ccccc1Cc1ccccc1,45.5 µM (inactive),31.8 µM (inactive),16.8 µM (inactive),27.9 µM (inactive),25.2 µM (inactive),22.7 µM (inactive),41.7 µM (inactive),34.7 µM (inactive),44 µM (inactive),51.6 µM (inactive),5.97 µM (inactive),32.2 µM (inactive),18.2 µM (inactive),43 µM (inactive),37.8 µM (inactive),35.9 µM (inactive),52.6 µM (inactive),43.3 µM (inactive),16.4 µM (inactive),
COc1c2nc(CCl)n(C)c(=O)c2c(OC)c2c(=O)n(C)c(CCl)nc12,1.19 µM (inactive),1.34 µM (inactive),1.11 µM (active),> 100 µM (inactive),1.22 µM (inactive),2.11 µM (inactive),1.62 µM (inactive),> 100 µM (inactive),2.67 µM (inactive),1.29 µM (inactive),2.07 µM (inactive),1.84 µM (inactive),,,1.1 µM (active),1.64 µM (inactive),1.81 µM (inactive),,1.3 µM (inactive),1.76 µM (inactive)
Cc1cccc(/C=N/NC(=S)N(C)CCc2ccccn2)n1,0.191 µM (active),0.453 µM (active),0.256 µM (active),0.38 µM (active),0.687 µM (active),0.521 µM (active),0.467 µM (active),22.9 µM (inactive),0.336 µM (active),0.288 µM (active),,0.383 µM (active),0.661 µM (active),0.541 µM (active),0.361 µM (active),0.347 µM (active),0.448 µM (active),0.287 µM (active),0.265 µM (active),0.361 µM (active)
